This note sets out measurements from patent US11236401B2, “Sensors for detection and quantification of microbiological protein secretion” (SenseUp GmbH, priority 2015, dated 2022).

Assay [1] has as its system strain ATCC 13032 pSen0706. Put plainly: In vivo EYFP fluorescence of sensor strain ATCC 13032 pSen0706 (cg0706 promoter) as a function of antibiotic concentration, BioLector. It is filed as cell-based, Corynebacterium glutamicum. Conditions: ATCC 13032 pSen0706 in CGXII medium, 24 hours; antibiotic added after 4 hours; Vancomycine 0; 1.25; 2.5; 5; 10; 15; 20 μg/ml; Bacitracin 0; 1; 4 μg/ml; excitation 485 nm, emission 520/10 nm; FIGS. 1 and 2. As to the method:
(§1) c) Detection of the fluorescence as a function of the concentration of a compound that is characterized by an antibiotic activity due to its property to damage the membrane of a bacterial cell.
The examination of in vivo fluorescence emission was carried out by culturing the cells of strain ATCC 13032 pSen0706 with 0.8 ml CGXII medium (Keilhauer et al, 1993, J. Bacteriol. 175: 5595-603) in microtiter dimension (Flowerplate® MTP-48-B) in the BioLector system (m2p-labs GmbH, 52499 Baesweiler, Germany). This system allows for the parallel cultivation of 48 cultures and regular and automated optical measurements of the culture growth as well as the fluorescence. 10 cultures with cells of strain ATCC 13032 pSen0706 were inoculated to an OD of 0.1 and cultured for 24 hours. After 4 hours the antibiotic substances Vancomycine or Bacitracine were added to the cultures. Vancomycine-concentrations were adjusted to 0; 1.25; 2.5; 5; 10; 15; 20 μg/ml and Bacitracin-concentrations were adjusted to 0; 1; 4 μg/ml. Every 10 minutes the cell densities of cultures and the fluorescence were measured. The fluorescence was excited with light of wavelength 485 nm, the fluorescence emission measurement of EYFP was carried out at 520/10 nm. The fluorescence of the cultures has been digitally recorded by means of the BioLection V.2.4.1.0 software.

In assay [2] the test system is strain ATCC 13032 pSen1325. Kind of assay: In vivo EYFP fluorescence of sensor strain ATCC 13032 pSen1325 (cg1325 promoter) as a function of antibiotic concentration, BioLector. It is filed as cell-based, Corynebacterium glutamicum. Conditions: ATCC 13032 pSen1325 in CGXII medium, 24 hours; antibiotic added after 4 hours; Vancomycine 0; 1.25; 2.5; 5; 10; 15; 20 μg/ml; Bacitracin 0; 0.25; 0.5; 1; 2; 4 μg/ml; excitation 485 nm, emission 520/10 nm. The procedure:
as §1
The examination of in vivo fluorescence emission was carried out by culturing the cells of strain ATCC 13032 pSen1325 with 0.8 ml CGXII medium (Keilhauer et al, 1993, J. Bacteriol. 175: 5595-603) in microtiter dimension (Flowerplate® MTP-48-B) in the BioLector system (m2p-labs GmbH, 52499 Baesweiler, Germany). 13 cultures with cells of strain ATCC 13032 pSen1325 were inoculated to an OD of 0.1 and cultured for 24 hours. After 4 hours the antibiotic substances Vancomycine or Bacitracine were added to the cultures. Vancomycine-concentrations were adjusted to 0; 1.25; 2.5; 5; 10; 15; 20 μg/ml and Bacitracin-concentrations were adjusted to 0; 0.25; 0.5; 1; 2; 4 μg/ml. Every 10 minutes the cell densities of cultures and the fluorescence were measured. The fluorescence was excited with light of wavelength 485 nm, the fluorescence emission measurement of EYFP was carried out at 520/10 nm. The fluorescence of the cultures has been digitally recorded by means of the BioLection V.2.4.1.0 software.

SMILES strings stand for the structures. Where a SMILES comes first, the peptide text is derived from it. Bridges are numbered along the chain shown (N, C = ends). [ ]: non-standard residue; d: D form. The star is where a group is joined. Ileψ(thiazoline)Cys = CC[C@H](C)[C@H](N)C1=N[C@H](C(=O)*)CS1; dOrn = NCCC[C@@H](N)C(=O)O

Take `CC[C@H](C)[C@H](N)C1=N[C@H](C(=O)N[C@@H](CC(C)C)C(=O)N[C@H](CCC(=O)O)C(=O)N[C@H](C(=O)N[C@H]2CCCCNC(=O)[C@H](CC(N)=O)NC(=O)[C@@H](CC(=O)O)NC(=O)[C@H](Cc3cnc[nH]3)NC(=O)[C@@H](Cc3ccccc3)NC(=O)[C@H]([C@@H](C)CC)NC(=O)[C@@H](CCCN)NC2=O)[C@@H](C)CC)CS1` [Bacitracine] ({Ileψ(thiazoline)Cys}-L[dE]IK[dOrn]I[dF]H[dD]N; lactam 4-C): the “fluorescence emission of cultures as a function of the concentration of the compound” value in assay [1] and in assay [2] was “fluorescence emissions of cultures with different Vancomycine or Bacitracine concentrations also differs” each time.
`CN[C@H](CC(C)C)C(=O)N[C@H]1C(=O)N[C@@H](CC(N)=O)C(=O)N[C@H]2C(=O)N[C@H]3C(=O)N[C@H](C(=O)N[C@H](C(=O)O)c4cc(O)cc(O)c4-c4cc3ccc4O)[C@H](O)c3ccc(c(Cl)c3)Oc3cc2cc(c3O[C@@H]2O[C@H](CO)[C@@H](O)[C@H](O)[C@H]2O[C@H]2C[C@](C)(N)[C@H](O)[C@H](C)O2)Oc2ccc(cc2Cl)[C@H]1O` [Vancomycine]: the “fluorescence emission of cultures as a function of the concentration of the compound” value in assay [1] and in assay [2] was “fluorescence emissions of cultures with different Vancomycine or Bacitracine concentrations also differs” in each case.
